Experimental findings from US20060013897A1, “Compositions for cancer therapy saponins or sapogenins” (priority 2002, published 2006) are described below.

Common to all, as to assay type: cell-based
In assay [1] the test system is mouse melanoma cells (B16). The experiment in a line: MTT cytotoxicity assay, B16 cells. The conditions noted are these: 10 μg/mL (individual components at similar concentrations), MTT at 24 hours. From the text: (§1) Preparation of Compositions: A process of preparing a composition comprising of Rh2, aPPD, and aPPT saponins and/or sapogenins from plants selected from the group consisting of panax ginseng, panax quinguefol and panax notoginseng, or a sapogenin source from some other plant, and proceeding according to the following steps: • (a) mixing the ginsenoside extract with water; • (b) (i) mixing the ginsenoside extract and water with a short-chain (1-5 carbon) alkali-metal alcoholate solution or a hydroxide-ethanol solution to produce a mixture; and • (ii) placing the resultant mixture in a reaction tank so that the resultant mixture can undergo chemical reactions at a temperature between 240 and 300° C. and at a pressure between 3.5 and 8.4 MPa; or • (c) (i) alternatively, mixing the ginsenosides extract with ethanol; • (ii) mixing the extract and ethanol with alkali-metal alcoholates solution to produce a mixture, and • (iii) placing the resultant mixture in a reaction tank so that the resultant mixture can undergo chemical reactions at a temperature between 240 and 300° C. and at a pressure between 3.5 and 8.4 MPa; and • (d) after the reaction is completed, collecting an intermediate product of a mix of saponins and/or sapogenins from the ethanol mixture. Cytotoxicity was measured using a standard microculture tetrazolium assay (MTT) (Alley, M C et al, Cancer Research 48:589-601, 1988). Exponentially growing cultures of tumor cells, including multi-drug resistant cell lines, were used to make microtiter plate cultures. Cells were seeded at 1.2×10^3 cells per well in 96-well plates, and grown overnight at 37° C. Test compounds were then added. Cells were treated for 24 hours. To determine the number of viable cells in each well, the MTT dye was added (3-(4,5-dimethylthiazol-2-yl)-2,5-diphenyltetrazolium bromide in saline) in accordance with the standard practice known in the art.
Cultured mouse melanoma cells (B16) were treated with the saponins and sapogenins Rh2, aPPT, and aPPD, individually, at various concentrations. […]

In assay [2] the test system is human breast cancer cells (MCF7). The experiment in a line: MTT cytotoxicity assay, MCF7 cells. Conditions: 15 μg/mL (individual components at similar concentrations), MTT at 24 hours.
Excerpt: as §1
Cultured human breast cancer cells (MCF7) were treated with the saponins and sapogenins Rh2, aPPT, and aPPD, individually, at various concentrations. […]
(Tetrazolium assays rely on reduction of a dye to a coloured formazan, in cell work by metabolically active cells.)

The subject of assay [3] is human glioma tumor cells (U87). The experiment in a line: MTT cytotoxicity assay, U87 cells. The conditions noted are these: 15 μg/mL (individual components at similar concentrations), MTT at 24 hours.
Excerpt: as §1
Cultured human glioma tumor cells (U87) were treated with the saponins and sapogenins Rh2, aPPT, and aPPD, individually, at various concentrations. […]

Each structure is given as a SMILES string.

As to `CC(C)=CCC[C@@](C)(O)[C@H]1CC[C@]2(C)[C@@H]1[C@H](O)C[C@@H]1[C@@]3(C)CC[C@H](O)C(C)(C)[C@@H]3CC[C@]12C` [aPPD, aglycon protopanaxadiol], the cancer cells killed in assay [1] was 44%; in assay [2] it was 69%; in assay [3], 52%.
Regarding `CC(C)=CCC[C@](C)(O)[C@H]1CC[C@]2(C)[C@@H]1[C@H](O)C[C@@H]1[C@@]3(C)CC[C@H](O)C(C)(C)[C@@H]3[C@@H](O)C[C@]12C` [aPPT, aglycon protopanaxatriol], the figures for the cancer cells killed in assay [1], in assay [2] and in assay [3] were 47%, 68% and 29%, respectively.
The like results for `CC(C)=CCC[C@](C)(O)[C@H]1CC[C@]2(C)[C@@H]1[C@H](O)C[C@@H]1[C@@]3(C)CC[C@H](O[C@@H]4O[C@H](CO)[C@@H](O)[C@H](O)[C@H]4O)C(C)(C)[C@@H]3CC[C@]12C` [Rh2, 3-O-β-D-glucopyranosyl-20(s)-protopanaxadiol] were, in that order, 56%, 68% and 64%.
